Assay results as given in PubChem BioAssay (NCI).
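Protocol summary: plate cells (96-well), add compound at 5 concentrations, incubate 48 h, interpolate endpoints linearly. At the TGI there is no net growth.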

system: SNB-75 CNS; assay: DTP human tumour cell line panel, 48 h

`CCOC(=O)c1ccc(-c2cc(C)no2)[nH]1` was tested, and the TGI was over 100 µM.

system: OVCAR-5 ovarian; assay: DTP human tumour cell line panel, 48 h

`COC(=O)CC(C)(NS(=O)c1ccc(C)cc1)c1ccccc1` (stereo unspecified) and `Cc1ccc2nc(-c3ccccc3)cc(=O)n2c1` cannot be ordered by TGI: over 100 µM for the first, over 100 µM for the second.

`C=C1c2nc3ccccc3n2C=C(c2ccc(OC)cc2)N1c1ccc(OC)cc1` and `COc1cc(S(=O)(=O)Nc2ccc(-c3csc(N4C(=O)CSC4c4cccc(Oc5ccccc5)c4)n3)cc2)ccc1Cl` (stereo unspecified) cannot be ordered by TGI: over 100 µM for the first, over 100 µM for the second.

Compared with `N#CSC#CCCC#CSC#N`, `CCOC(=O)/C(=C/c1ccc(OC)cc1)N(CC)CC` is higher in TGI: 40.3 µM for the first, over 100 µM for the second.

`O=C(O)C1C2c3ccccc3C(c3ccccc32)C1C(=O)NCC1CC1` (stereo unspecified) and `O=C(C(=O)n1ccc2ccccc21)n1ccc2ccccc21` cannot be ordered by TGI: over 100 µM for the first, over 100 µM for the second.

`O=c1c(F)cn(Cc2c(Cl)cccc2Cl)c(=O)n1Cc1c(Cl)cccc1Cl` and `COc1cccc(-c2cc(=O)c3cc(N4CCCCC4)ccc3[nH]2)c1` cannot be ordered by TGI: over 31.6 µM for the first, over 100 µM for the second.

Going from `Cc1cn(C2OC(CO[Si](C)(C)C(C)(C)C)C(N(C)O[Si](C)(C)C(C)(C)C)C2[Se]c2ccccc2)c(=O)[nH]c1=O` (stereo unspecified) to `CCOC(=O)c1ccc(-c2cc(C)no2)[nH]1`, the TGI rises from 11.7 µM to over 100 µM.

`CNC(=O)NCCCC(NC(C)=O)C(=O)NCc1ccccc1` (stereo unspecified) and `NC(Cc1ccccc1)C(=O)NC(Cc1ccccc1)NC(=O)C(Cc1c[nH]c2ccccc12)C(=O)O` (stereo unspecified) cannot be ordered by TGI: over 100 µM for the first, over 100 µM for the second.

Compared with `O=[N+]([O-])c1ccc2nc(Nc3ccccc3)c(Nc3ccccc3)nc2c1`, `O=S(=O)(O)c1cc(N=Nc2c(O)ccc3ccccc23)cc2c(S(=O)(=O)O)cccc12` is higher in TGI: 6.93 µM for the first, over 100 µM for the second.

`COC(=O)c1ccc(Cc2cc(Cc3ccc(C(=O)OC)cc3)cc(Cc3ccc(C(=O)OC)cc3)c2)cc1` and `CON(C)C(=O)C(C)N(Cc1ccccc1)Cc1ccccc1` (stereo unspecified) cannot be ordered by TGI: over 25 µM for the first, over 100 µM for the second.

`C[C@]12[C@@H]3CC[C@H]1[C@@H](O)C(=O)N2CC3` and `CC(N)/C(N)=N/O` (stereo unspecified) cannot be ordered by TGI: over 100 µM for the first, over 100 µM for the second.

system: SW-620 colon; assay: DTP human tumour cell line panel, 48 h

`O=c1cc(-c2ccc3c(c2)OCO3)[nH]c2cc3c(cc12)OCO3` and `COc1cccc(-c2cc(=O)c3cc(N4CCCCC4)ccc3[nH]2)c1` cannot be ordered by TGI: over 100 µM for the first, over 100 µM for the second.

`COC(=O)CC(C)(NS(=O)c1ccc(C)cc1)c1ccccc1` (stereo unspecified) and `Cc1ccc2nc(-c3ccccc3)cc(=O)n2c1` cannot be ordered by TGI: over 100 µM for the first, over 100 µM for the second.

`C=C1c2nc3ccccc3n2C=C(c2ccc(OC)cc2)N1c1ccc(OC)cc1` and `COc1cc(S(=O)(=O)Nc2ccc(-c3csc(N4C(=O)CSC4c4cccc(Oc5ccccc5)c4)n3)cc2)ccc1Cl` (stereo unspecified) cannot be ordered by TGI: over 100 µM for the first, over 100 µM for the second.

Going from `N#CSC#CCCC#CSC#N` to `CCOC(=O)/C(=C/c1ccc(OC)cc1)N(CC)CC`, the TGI rises from 38.7 µM to over 100 µM.

`O=C(O)C1C2c3ccccc3C(c3ccccc32)C1C(=O)NCC1CC1` (stereo unspecified) and `O=C(C(=O)n1ccc2ccccc21)n1ccc2ccccc21` cannot be ordered by TGI: over 100 µM for the first, over 100 µM for the second.

`O=c1c(F)cn(Cc2c(Cl)cccc2Cl)c(=O)n1Cc1c(Cl)cccc1Cl` and `O=S(=O)(O)c1cc(N=Nc2c(O)ccc3ccccc23)cc2c(S(=O)(=O)O)cccc12` cannot be ordered by TGI: over 31.6 µM for the first, over 100 µM for the second.

Compared with `Cc1ccc(Nc2nc(NNC(=O)Cc3ccccc3)nc(NNC(=O)c3ccncc3)n2)cc1`, `O=[N+]([O-])c1ccc2nc(Nc3ccccc3)c(Nc3ccccc3)nc2c1` is lower in TGI: over 10 µM for the first, 3.46 µM for the second.

`Cc1cn(C2OC(CO[Si](C)(C)C(C)(C)C)C(N(C)O[Si](C)(C)C(C)(C)C)C2[Se]c2ccccc2)c(=O)[nH]c1=O` (stereo unspecified) and `CCOC(=O)c1ccc(-c2cc(C)no2)[nH]1` cannot be ordered by TGI: over 100 µM for the first, over 100 µM for the second.

`CNC(=O)NCCCC(NC(C)=O)C(=O)NCc1ccccc1` (stereo unspecified) and `NC(Cc1ccccc1)C(=O)NC(Cc1ccccc1)NC(=O)C(Cc1c[nH]c2ccccc12)C(=O)O` (stereo unspecified) cannot be ordered by TGI: over 100 µM for the first, over 100 µM for the second.

First: Cc1ccc(S(=O)(=O)N2C3C=CC(C3)[C@@H]2C(Cl)(Cl)Cl)cc1 (stereo partly specified)
Second: CON(C)C(=O)C(C)N(Cc1ccccc1)Cc1ccccc1 (stereo unspecified)
The TGI of the first is lower: 44.9 µM for the first, over 100 µM for the second.

`COC(=O)c1ccc(Cc2cc(Cc3ccc(C(=O)OC)cc3)cc(Cc3ccc(C(=O)OC)cc3)c2)cc1` and `C[C@]12[C@@H]3CC[C@H]1[C@@H](O)C(=O)N2CC3` cannot be ordered by TGI: over 25 µM for the first, over 100 µM for the second.

Compound `CC(N)/C(N)=N/O` (stereo unspecified) has a TGI of over 100 µM.

system: TK-10 renal; assay: DTP human tumour cell line panel, 48 h

`O=c1cc(-c2ccc3c(c2)OCO3)[nH]c2cc3c(cc12)OCO3` and `COc1cccc(-c2cc(=O)c3cc(N4CCCCC4)ccc3[nH]2)c1` cannot be ordered by TGI: over 100 µM for the first, over 100 µM for the second.

`COC(=O)CC(C)(NS(=O)c1ccc(C)cc1)c1ccccc1` (stereo unspecified) and `Cc1ccc2nc(-c3ccccc3)cc(=O)n2c1` cannot be ordered by TGI: over 100 µM for the first, over 100 µM for the second.

Going from `C=C1c2nc3ccccc3n2C=C(c2ccc(OC)cc2)N1c1ccc(OC)cc1` to `O=C(C(=O)n1ccc2ccccc21)n1ccc2ccccc21`, the TGI rises from 24.3 µM to over 100 µM.

Compared with `N#CSC#CCCC#CSC#N`, `CCOC(=O)/C(=C/c1ccc(OC)cc1)N(CC)CC` is higher in TGI: 33.1 µM for the first, over 100 µM for the second.

`O=C(O)C1C2c3ccccc3C(c3ccccc32)C1C(=O)NCC1CC1` (stereo unspecified) and `CON(C)C(=O)C(C)N(Cc1ccccc1)Cc1ccccc1` (stereo unspecified) cannot be ordered by TGI: over 100 µM for the first, over 100 µM for the second.

`O=c1c(F)cn(Cc2c(Cl)cccc2Cl)c(=O)n1Cc1c(Cl)cccc1Cl` and `O=S(=O)(O)c1cc(N=Nc2c(O)ccc3ccccc23)cc2c(S(=O)(=O)O)cccc12` cannot be ordered by TGI: over 31.6 µM for the first, over 100 µM for the second.

Compared with `Cc1ccc(Nc2nc(NNC(=O)Cc3ccccc3)nc(NNC(=O)c3ccncc3)n2)cc1`, `O=[N+]([O-])c1ccc2nc(Nc3ccccc3)c(Nc3ccccc3)nc2c1` is lower in TGI: over 10 µM for the first, 6.84 µM for the second.

Going from `Cc1cn(C2OC(CO[Si](C)(C)C(C)(C)C)C(N(C)O[Si](C)(C)C(C)(C)C)C2[Se]c2ccccc2)c(=O)[nH]c1=O` (stereo unspecified) to `CCOC(=O)c1ccc(-c2cc(C)no2)[nH]1`, the TGI rises from 27.1 µM to over 100 µM.

`CNC(=O)NCCCC(NC(C)=O)C(=O)NCc1ccccc1` (stereo unspecified) and `NC(Cc1ccccc1)C(=O)NC(Cc1ccccc1)NC(=O)C(Cc1c[nH]c2ccccc12)C(=O)O` (stereo unspecified) cannot be ordered by TGI: over 100 µM for the first, over 100 µM for the second.

`Cc1ccc(S(=O)(=O)N2C3C=CC(C3)[C@@H]2C(Cl)(Cl)Cl)cc1` (stereo partly specified) and `C[C@]12[C@@H]3CC[C@H]1[C@@H](O)C(=O)N2CC3` cannot be ordered by TGI: over 100 µM for the first, over 100 µM for the second.

`COC(=O)c1ccc(Cc2cc(Cc3ccc(C(=O)OC)cc3)cc(Cc3ccc(C(=O)OC)cc3)c2)cc1` and `CC(N)/C(N)=N/O` (stereo unspecified) cannot be ordered by TGI: over 25 µM for the first, over 100 µM for the second.

system: M14 melanoma; assay: DTP human tumour cell line panel, 48 h

`O=c1cc(-c2ccc3c(c2)OCO3)[nH]c2cc3c(cc12)OCO3` and `COc1cccc(-c2cc(=O)c3cc(N4CCCCC4)ccc3[nH]2)c1` cannot be ordered by TGI: over 100 µM for the first, over 100 µM for the second.

`C=C1c2nc3ccccc3n2C=C(c2ccc(OC)cc2)N1c1ccc(OC)cc1` and `COc1cc(S(=O)(=O)Nc2ccc(-c3csc(N4C(=O)CSC4c4cccc(Oc5ccccc5)c4)n3)cc2)ccc1Cl` (stereo unspecified) cannot be ordered by TGI: over 100 µM for the first, over 100 µM for the second.

First: N#CSC#CCCC#CSC#N
Second: CCOC(=O)/C(=C/c1ccc(OC)cc1)N(CC)CC
The TGI of the first is lower: 26.4 µM for the first, over 100 µM for the second.

`O=C(O)C1C2c3ccccc3C(c3ccccc32)C1C(=O)NCC1CC1` (stereo unspecified) and `CON(C)C(=O)C(C)N(Cc1ccccc1)Cc1ccccc1` (stereo unspecified) cannot be ordered by TGI: over 100 µM for the first, over 100 µM for the second.

`O=c1c(F)cn(Cc2c(Cl)cccc2Cl)c(=O)n1Cc1c(Cl)cccc1Cl` and `Cc1ccc2nc(-c3ccccc3)cc(=O)n2c1` cannot be ordered by TGI: over 31.6 µM for the first, over 100 µM for the second.

`Cc1ccc(Nc2nc(NNC(=O)Cc3ccccc3)nc(NNC(=O)c3ccncc3)n2)cc1` and `NC(Cc1ccccc1)C(=O)NC(Cc1ccccc1)NC(=O)C(Cc1c[nH]c2ccccc12)C(=O)O` (stereo unspecified) cannot be ordered by TGI: over 10 µM for the first, over 100 µM for the second.

Going from `Cc1cn(C2OC(CO[Si](C)(C)C(C)(C)C)C(N(C)O[Si](C)(C)C(C)(C)C)C2[Se]c2ccccc2)c(=O)[nH]c1=O` (stereo unspecified) to `CCOC(=O)c1ccc(-c2cc(C)no2)[nH]1`, the TGI rises from 50.8 µM to over 100 µM.

`CNC(=O)NCCCC(NC(C)=O)C(=O)NCc1ccccc1` (stereo unspecified) and `COC(=O)c1ccc(Cc2cc(Cc3ccc(C(=O)OC)cc3)cc(Cc3ccc(C(=O)OC)cc3)c2)cc1` cannot be ordered by TGI: over 100 µM for the first, over 25 µM for the second.

Going from `O=S(=O)(O)c1cc(N=Nc2c(O)ccc3ccccc23)cc2c(S(=O)(=O)O)cccc12` to `Cc1ccc(S(=O)(=O)N2C3C=CC(C3)[C@@H]2C(Cl)(Cl)Cl)cc1` (stereo partly specified), the TGI falls from over 100 µM to 39.1 µM.

`C[C@]12[C@@H]3CC[C@H]1[C@@H](O)C(=O)N2CC3` and `CC(N)/C(N)=N/O` (stereo unspecified) cannot be ordered by TGI: over 100 µM for the first, over 100 µM for the second.
